Source: paper PMC9926234, “Iterative computational design and crystallographic screening identifies potent inhibitors targeting the Nsp3 macrodomain of SARS-CoV-2” (Proceedings of the National Academy of Sciences of the …, 2023)
Several values for one entry are separate records, joined by “and”; a condition that tells them apart may be missing. Identical values can stand only once. Like-named read-outs stand apart in the source and are kept apart here.

Tests used:
Format in all cases: binding
SARS-CoV-2 NSP3 Mac1 [1] = target: T1, SARS-CoV-2 NSP3 Mac1 (Severe acute respiratory syndrome coronavirus 2, UniProt P0DTD1); experiment: biochemical; conditions: for IC50: read-out: IC50; for Ki: Ki estimation from HTRF-derived IC50, Cheng-Prusoff, peptide 400nM, Kd 2.68µM, read-out: Ki***
SARS-CoV-2 NSP3 Mac1 [2] = target: T1, SARS-CoV-2 NSP3 Mac1; conditions: for Refined occupancy: ligand occupancy after refinement (phenix.refine); for binding to Mac1 in crystal soaking, result in words: soaks at 10 to 20 mM
SARS-CoV-2 NSP3 Mac1 [3] = target: T1, SARS-CoV-2 NSP3 Mac1; design: contains a conserved macrodomain enzyme (Mac1); conditions: for Spearman est (compound concentration vs apparent Tm): DSF dose responsiveness, 1 µM nsp3 mac1, adj p given
Procedure, shortened: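 Differential scanning fluorimetry using 5 µM Fluorescent Yellow dye in place of SYPRO Orange. Compounds run in triplicate at seven two-fold dilutions from 1,000 or 100 μM, with ΔTma taken against a DMSO control in the same plate region. Dose-response significance assessed by Spearman's coefficient between concentration and ΔTma.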

[4] = PanDDA event map, 1 minus background density correction, crystal soaking of Mac1
[5] = HTRF ADPr-peptide displacement from SARS-CoV-2 Mac1
[6] = HTRF, several values in a cell are separate determinations
[7] = PanDDA 1-BDC (background density correction) of the event, crystal soak 100 mM, PanDDA run dmso_34
[8] = crystal soak, compound concentration 100 mM, PanDDA run dmso_34, series docking_lead-like_1
[9] = ligand modeled in the crystal structure, crystal soak 100 mM, PanDDA run dmso_34
[10] = overall hit flag: binding in crystallographic soaking or the HTRF-based binding assay
[11] = maximal thermal upshift vs DMSO control

## Cc1c[nH]c2ncc(C(=O)N(C)c3nnn[nH]3)cc12 [R7335]
SARS-CoV-2 NSP3 Mac1 [1]; HTRF
  IC50: 42.2 µM
SARS-CoV-2 NSP3 Mac1 [1]
  Ki: 36.7 µM
SARS-CoV-2 NSP3 Mac1 [2]; PanDDA event map, 1-BDC of the hit dataset, crystal soak, compound concentration 100 mM
  1-BDC: 0.26
SARS-CoV-2 NSP3 Mac1 [2]; [4]
  1-BDC (PanDDA): 0.2
SARS-CoV-2 NSP3 Mac1 [2]; ligand modeled from this dataset, compound concentration 100 mM
  Modeled?: TRUE
SARS-CoV-2 NSP3 Mac1 [2]; crystal soaking of Mac1
  Refined occupancy: 40
SARS-CoV-2 NSP3 Mac1 [2]; true hit = binding in crystallographic soaking or the HTRF-based binding assay
  HIT*: Y
SARS-CoV-2 NSP3 Mac1 [3]
  Spearman est (compound concentration vs apparent Tm): 0.73
SARS-CoV-2 NSP3 Mac1 [3]; maximal thermal upshift
  DSF max dTma: 1.16 ˚C

## CCc1c[nH]c2ncnc(N3CCCC(S(C)(=O)=O)C3)c12 (centres unmarked) [Z1027]
SARS-CoV-2 NSP3 Mac1 [1]; [5]
  IC50: 126 µM
SARS-CoV-2 NSP3 Mac1 [1]; [6]
  IC50: 126 µM
SARS-CoV-2 NSP3 Mac1 [1]
  Ki: 110 µM
SARS-CoV-2 NSP3 Mac1 [2]; [7]
  1-BDC: 0.17
SARS-CoV-2 NSP3 Mac1 [2]; [4]
  1-BDC: 0.17
SARS-CoV-2 NSP3 Mac1 [2]; [8]
  PanDDA hit?: TRUE
SARS-CoV-2 NSP3 Mac1 [2]; [9]
  Modeled?: TRUE
SARS-CoV-2 NSP3 Mac1 [2]; crystal soaking of Mac1
  Refined occupancy: 34
SARS-CoV-2 NSP3 Mac1 [2]; [10]
  HIT*: Y
SARS-CoV-2 NSP3 Mac1 [3]
  Spearman est (compound concentration vs apparent Tm): 0.96
SARS-CoV-2 NSP3 Mac1 [3]; [11]
  DSF max dTma: 1.03 °C

## Cc1[nH]c2ncnc(N3CCOC(CC(F)(F)F)C3)c2c1C (centres unmarked) [Z2051]
SARS-CoV-2 NSP3 Mac1 [1]; [5]
  IC50: 137 µM
SARS-CoV-2 NSP3 Mac1 [1]; [6]
  IC50: 137 µM
SARS-CoV-2 NSP3 Mac1 [1]
  Ki: 119 µM
SARS-CoV-2 NSP3 Mac1 [2]; [10]
  HIT*: Y
SARS-CoV-2 NSP3 Mac1 [2]
  binding to Mac1 in crystal soaking, result in words: not confirmed by X-ray crystallography
SARS-CoV-2 NSP3 Mac1 [3]
  Spearman est (compound concentration vs apparent Tm): 0.51
SARS-CoV-2 NSP3 Mac1 [3]; [11]
  DSF max dTma: 0.51 °C

## CCc1c[nH]c2ncnc(N3CCC[C@H](C(N)=O)C3)c12 [Z3271]
SARS-CoV-2 NSP3 Mac1 [1]; [5]
  IC50: 204 µM
SARS-CoV-2 NSP3 Mac1 [1]; [6]
  IC50: 204 µM
SARS-CoV-2 NSP3 Mac1 [1]
  Ki: 177 µM
SARS-CoV-2 NSP3 Mac1 [2]; [10]
  HIT*: Y
SARS-CoV-2 NSP3 Mac1 [2]
  binding to Mac1 in crystal soaking, result in words: not confirmed by X-ray crystallography
SARS-CoV-2 NSP3 Mac1 [3]
  Spearman est (compound concentration vs apparent Tm): 0.97
SARS-CoV-2 NSP3 Mac1 [3]; [11]
  DSF max dTma: 1.77 °C

## O=S1(=O)CCC2(CCCN(c3ncnc4[nH]ccc34)C2)C1 (centres unmarked) [Z4305]
SARS-CoV-2 NSP3 Mac1 [1]; [5]
  IC50: 170 µM
SARS-CoV-2 NSP3 Mac1 [1]; [6]
  IC50: 170 µM
SARS-CoV-2 NSP3 Mac1 [1]
  Ki: 148 µM
SARS-CoV-2 NSP3 Mac1 [2]; [7]
  1-BDC: 0.38
SARS-CoV-2 NSP3 Mac1 [2]; [4]
  1-BDC: 0.38
SARS-CoV-2 NSP3 Mac1 [2]; [8]
  PanDDA hit?: TRUE
SARS-CoV-2 NSP3 Mac1 [2]; [9]
  Modeled?: TRUE
SARS-CoV-2 NSP3 Mac1 [2]; crystal soaking of Mac1
  Refined occupancy: 76
SARS-CoV-2 NSP3 Mac1 [2]; [10]
  HIT*: Y
SARS-CoV-2 NSP3 Mac1 [3]
  Spearman est (compound concentration vs apparent Tm): 0.77
SARS-CoV-2 NSP3 Mac1 [3]; [11]
  DSF max dTma: 1.26 °C

## CCc1c[nH]c2ncnc(N3CCCC(Cc4nc(C)no4)C3)c12 (centres unmarked) [Z5531]
SARS-CoV-2 NSP3 Mac1 [1]; [5]
  IC50: 148 µM
SARS-CoV-2 NSP3 Mac1 [1]; [6]
  IC50: 148 µM
SARS-CoV-2 NSP3 Mac1 [1]
  Ki: 129 µM
SARS-CoV-2 NSP3 Mac1 [2]; [7]
  1-BDC: 0.2
SARS-CoV-2 NSP3 Mac1 [2]; [4]
  1-BDC: 0.2
SARS-CoV-2 NSP3 Mac1 [2]; [8]
  PanDDA hit?: TRUE
SARS-CoV-2 NSP3 Mac1 [2]; [9]
  Modeled?: TRUE
SARS-CoV-2 NSP3 Mac1 [2]; crystal soaking of Mac1
  Refined occupancy: 40
SARS-CoV-2 NSP3 Mac1 [2]; [10]
  HIT*: Y
SARS-CoV-2 NSP3 Mac1 [3]
  Spearman est (compound concentration vs apparent Tm): 0.68
SARS-CoV-2 NSP3 Mac1 [3]; [11]
  DSF max dTma: 0.6 °C

## CC(O)CNc1cc(N2CC3(CCC3)C(F)(C(=O)O)C2)ncn1 (centres unmarked) [Z5722]
SARS-CoV-2 NSP3 Mac1 [1]; [5]
  IC50: 464 µM and 460 µM
SARS-CoV-2 NSP3 Mac1 [1]
  Ki: 404 µM
SARS-CoV-2 NSP3 Mac1 [2]; PanDDA event map background density correction, crystal soak, Compound_concentration 100 mM, PanDDA run dmso_34
  1-BDC: 0.18
SARS-CoV-2 NSP3 Mac1 [2]; [4]
  1-BDC: 0.18
SARS-CoV-2 NSP3 Mac1 [2]; crystal soak, Compound_concentration 100 mM, Echo dispense 40 nl, PanDDA run dmso_34
  PanDDA hit?: TRUE
SARS-CoV-2 NSP3 Mac1 [2]; ligand modeled in crystal structure, crystal soak, Compound_concentration 100 mM, PanDDA run dmso_34
  Modeled?: TRUE
SARS-CoV-2 NSP3 Mac1 [2]; crystal soaking of Mac1
  Refined occupancy: 36
SARS-CoV-2 NSP3 Mac1 [2]; [10]
  HIT*: Y
SARS-CoV-2 NSP3 Mac1 [3]
  Spearman est (compound concentration vs apparent Tm): 0.59
SARS-CoV-2 NSP3 Mac1 [3]; [11]
  DSF max dTma: 0.96 °C

## C[C@@H]1CN(c2ncnc3[nH]c4ccccc4c23)C[C@@H](CO)O1 [Z6923]
SARS-CoV-2 NSP3 Mac1 [1]; [5]
  IC50: 416 µM and ≤ 90 µM
SARS-CoV-2 NSP3 Mac1 [1]; [6]
  IC50: 416 µM
SARS-CoV-2 NSP3 Mac1 [1]
  Ki: 362 µM
SARS-CoV-2 NSP3 Mac1 [2]; [4]
  1-BDC: 0.1
SARS-CoV-2 NSP3 Mac1 [2]; ligand modeled in structure, crystal soak, Compound_concentration 100 mM
  Modeled?: TRUE
SARS-CoV-2 NSP3 Mac1 [2]; crystal soaking of Mac1
  Refined occupancy: 20
SARS-CoV-2 NSP3 Mac1 [2]; [10]
  HIT*: Y
SARS-CoV-2 NSP3 Mac1 [3]
  Spearman est (compound concentration vs apparent Tm): 0.28
SARS-CoV-2 NSP3 Mac1 [3]; [11]
  DSF max dTma: 0.46 °C

## O=c1[nH]nc(C2CCCN(c3ncnc4[nH]ccc34)C2)o1 (centres unmarked) [Z7655]
SARS-CoV-2 NSP3 Mac1 [1]; [5]
  IC50: 279 µM
SARS-CoV-2 NSP3 Mac1 [1]; [6]
  IC50: 279 µM
SARS-CoV-2 NSP3 Mac1 [1]
  Ki: 243 µM
SARS-CoV-2 NSP3 Mac1 [2]; [7]
  1-BDC: 0.09
SARS-CoV-2 NSP3 Mac1 [2]; [4]
  1-BDC: 0.09
SARS-CoV-2 NSP3 Mac1 [2]; [8]
  PanDDA hit?: TRUE
SARS-CoV-2 NSP3 Mac1 [2]; [9]
  Modeled?: TRUE
SARS-CoV-2 NSP3 Mac1 [2]; crystal soaking of Mac1
  Refined occupancy: 18
SARS-CoV-2 NSP3 Mac1 [2]; [10]
  HIT*: Y
SARS-CoV-2 NSP3 Mac1 [3]
  Spearman est (compound concentration vs apparent Tm): 0.22
SARS-CoV-2 NSP3 Mac1 [3]; [11]
  DSF max dTma: 0.6 °C
